{
  "source": "patent US20160324881A1",
  "about": "“Neurokinin-1 Receptor Antagonists For Use In A Method Of Prevention Of Cancer” (priority 2013, published 2016)",
  "key": {"A549 cells [1]": {"tested_on": "A549 cells", "assay": "Xenograft tumor model, preventive application, A549", "conditions": "aprepitant 100 mg/kg p.o., fosaprepitant 60 mg/kg i.v., 1x daily from day -2", "procedure": "(§1) The ability of fosaprepitant and aprepitant to prevent tumor formation in xenograft models for breast cancer, lung cancer and colon cancer was investigated.\n(§2) Monolayer MDA-MB-231 cells, HCT-116 cells and A549 cells, respectively, were grown in DMEM+10% FCS. The cells were cultured in a humidified atmosphere of 90% air and 10% carbon dioxide at 37° C. Media was routinely changed every 3 days. Confluent cultures were split 1:3 to 1:3 every 3-4 days using Trypsin/EDTA and seeded at a density of approximately 3-4×10^6 cells/15 cm^2+25 mL medium.\n(§3) Female BALB/c nude (CAnN.Cg-Foxn1^nu/Crl) Mice (Charles River GmbH, Sulzfeld, Germany) aged 4-5 weeks at delivery and weighing approximately 15-18 g were kept under optimum hygienic conditions, air-conditioned with 10-15 air changes per hour, and continually monitored environment with target ranges for temperature 22±3° C. and for relative humidity 30-70%, 12 hours artificial fluorescent light/12 hours dark. Maximum 4 animals were kept per individual ventilated cage (IVC) and fed with a diet consisting of M-Zucht (ssniff Spezialdiáten GmbH) and autoclaved community tab water.\n(§4) After an acclimatization period of 4 days (day −2) application of fosaprepitant, aprepitant and vehicle was started: Fosaprepitant was administered intravenously (i.v.) once daily for 20 days, and aprepitant was administered per oral gavage (p.o.) once daily for 20 days. Fosaprepitant was dissolved in 0.9% NaCl and 0.9% NaCl was used analogous to fosaprepitant as control (vehicle 1). As aprepitant is not water-soluble, it was provided as a suspension of ground EMEND® tablets in OraPlus® (Paddock Laboratories, Minneapolis, USA; contains: purified water, microcrystalline cellulose, carboxymethylcellulose sodium, xanthan gum, flavouring, citric acid, sodium phosphate, simethicone, methylparaben, and potassium sorbate, pH 4.2) and OraPlus® was used analogous to aprepitant as control (vehicle 2).\n(§5) In the following, animal weights were measured (balance: Mettler Toledo PB602-L). Primary tumor sizes were measured by callipering (manual calliper, OMC Fontana). Tumor sizes were calculated according to the formula W^2×L/2 (L=length and W=the perpendicular width of the tumor, L>W).\n(§6) Animal behavior and welfare was observed daily and tumor growth was recorded every two days by calliper measurement over a period of 30 days."}, "[2]": {"conditions": "cited from earlier work"}, "MDA-MB231 cells": {"tested_on": "MDA-MB231 cells", "assay": "Soft agar growth assay (Alamar Blue), MDA-MB231", "format": "cell-based", "conditions": "Homo sapiens, MDA-MB-231, 264 h", "procedure": "(§7) Aprepitant (Biorbit) and fosaprepitant (IVEMEND®, MSD) were dissolved at a concentration of 100 mM in 100% DMSO (aprepitant) or in 0.9% NaCl (fosaprepitant). Actinomycin D was used as reference compound.\n(§8) Stock solutions were diluted covering the final concentration range between 0 and 200 μM. The appropriate solvent controls were performed in parallel.\n(§9) Compounds dissolved in DMSO (aprepitant as well as Actinomycin D) were diluted in 8 semilog steps in DMSO to obtain a dilution series with the 1000 fold final concentration.\n(§10) Fosaprepitant was diluted in 8 semilog steps in 0.9% NaCl to obtain a dilution series with the 1000 fold final concentration.\n(§11) Cancer cells stemming from established cancer cell lines (A549, HCT116, MDA-MB231) were cultured in DMEM containing 10% FCS and Penicillin/Streptomycin.\n(§12) For each cell line 96 well suspension cell culture plates were prepared. 100 μL of the soft agar bottom layer (0.6% final concentration in complete medium) was poured and left to solidify. […]\n(§13) Next day, compounds were added into the inner wells of the plate. […] Finally, the assays were developed using Alamar Blue and upon 3-5 h of incubation at 37° C. fluorescence intensity was determined (excitation: 560 nm; emission: 590 nm). […]"}, "HCT116 cells": {"tested_on": "HCT116 cells", "assay": "Soft agar growth assay (Alamar Blue), HCT116", "format": "cell-based", "conditions": "Homo sapiens, HCT-116, 192 h", "procedure": "as §7, §8, §9, §10, §11, §12, §13"}, "HCT-116 cells": {"tested_on": "HCT-116 cells", "assay": "Xenograft tumor model, preventive application, HCT116", "conditions": "aprepitant 100 mg/kg p.o., fosaprepitant 60 mg/kg i.v., 1x daily from day -2", "procedure": "as §1, §2, §3, §4, §5, §6"}, "[3]": {"tested_on": "MDA-MB-231 cells (triple negative tumor cells)", "assay": "Example 5: preventive treatment of xenografted nude mice (FIG. 4)", "format": "in vivo", "conditions": "MDA-MB-231 xenograft; fosaprepitant i.v. 60 mg/kg/d, aprepitant p.o. 100 mg/kg/d, once daily for 19 days from day -2", "experimental": "After an acclimatization period, application of fosaprepitant, aprepitant and vehicle control was started (day −2): Fosaprepitant was administered intravenously (i.v.; 60 mg/kg/d) once daily for 19 days, and aprepitant was administered per oral gavage (p.o.; 100 mg/kg/d) once daily for 19 days. […] The tumor volume was measured and depicted as mm3 at the indicated time points.\nFIG. 4: In vivo treatment of xenografted mice with fosaprepitant and aprepitant. After an acclimatization period, application of fosaprepitant, aprepitant and vehicle control was started (day −2): Fosaprepitant was administered intravenously (i.v.; 60 mg/kg/d) once daily for 19 days, and aprepitant was administered per oral gavage (p.o.; 100 mg/kg/d) once daily for 19 days. […] The tumor volume was measured and depicted as mm3 at the indicated time points."}, "brain tumors": {"tested_on": "brain tumors", "conditions": "background report; cited from earlier work"}, "[4]": {"conditions": "capsules; cited from earlier work"}, "NK1 receptors": {"molecular_target": "NK1 receptors (Homo sapiens, UniProt P25103)", "sequence (P25103 whole entry)": "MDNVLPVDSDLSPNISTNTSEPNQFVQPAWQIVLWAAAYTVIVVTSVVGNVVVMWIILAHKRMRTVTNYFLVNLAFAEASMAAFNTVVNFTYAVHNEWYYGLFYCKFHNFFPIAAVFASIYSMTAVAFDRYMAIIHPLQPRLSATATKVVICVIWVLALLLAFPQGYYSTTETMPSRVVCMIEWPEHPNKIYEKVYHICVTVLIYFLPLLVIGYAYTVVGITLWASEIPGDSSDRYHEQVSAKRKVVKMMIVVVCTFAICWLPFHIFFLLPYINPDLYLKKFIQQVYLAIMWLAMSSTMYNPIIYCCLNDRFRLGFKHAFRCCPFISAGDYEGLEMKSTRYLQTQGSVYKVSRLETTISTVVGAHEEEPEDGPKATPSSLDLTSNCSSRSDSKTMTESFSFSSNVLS", "conditions": "versus other receptors such as serotonin, dopamine, corticosteroid; estimated; cited from earlier work"}, "MDA-MB-231 cells": {"tested_on": "MDA-MB-231 cells", "assay": "Xenograft tumor model, preventive application, MDA-MB-231", "conditions": "aprepitant 100 mg/kg p.o., fosaprepitant 60 mg/kg i.v., 1x daily from day -2", "procedure": "as §1, §2, §3, §4, §5, §6"}, "A549 cells [5]": {"tested_on": "A549 cells", "assay": "Soft agar growth assay (Alamar Blue), A549", "format": "cell-based", "conditions": "Homo sapiens", "procedure": "as §7, §8, §9, §10, §11, §12, §13"}, "[6]": {"conditions": "A549, 10 days after tumor cell inoculation"}, "[7]": {"conditions": "A549, 20 days after tumor cell inoculation"}, "[8]": {"conditions": "A549, 30 days after tumor cell inoculation"}, "[9]": {"conditions": "HCT116, 10 days after tumor cell inoculation"}, "[10]": {"conditions": "HCT116, 20 days after tumor cell inoculation"}, "[11]": {"conditions": "HCT116, 30 days after tumor cell inoculation"}, "[12]": {"conditions": "MDA-MB-231, 10 days after tumor cell inoculation"}, "[13]": {"conditions": "MDA-MB-231, 20 days after tumor cell inoculation"}, "[14]": {"conditions": "MDA-MB-231, 30 days after tumor cell inoculation"}},
  "note": "Where two headings read alike, the source gives them in different places.",
  "data": [
    {"smiles": "C[C@@H](O[C@H]1OCCN(Cc2nc(=O)[nH][nH]2)[C@H]1c1ccc(F)cc1)c1cc(C(F)(F)F)cc(C(F)(F)F)c1", "note": "[Aprepitant]", "values": [
      {"measurement": "Tumor volume (mean)", "setting": "A549 cells [1]; [6]", "result": "<20", "unit": "mm^3"},
      {"measurement": "Tumor volume (mean)", "setting": "A549 cells [1]; [7]", "result": "<20", "unit": "mm^3"},
      {"measurement": "Tumor volume (mean)", "setting": "A549 cells [1]; [8]", "result": "<20", "unit": "mm^3"},
      {"measurement": "water solubility", "setting": "[2]", "result": "virtually water-insoluble"},
      {"measurement": "IC50", "setting": "MDA-MB231 cells; MDA-MB231 (breast), soft agar growth, incubation time 11 days, read-out: IC50", "result": 17, "unit": "µM"},
      {"measurement": "IC50", "setting": "HCT116 cells; HCT116 (colon), soft agar growth, incubation time 8 days, read-out: IC50", "result": 3.4, "unit": "µM"},
      {"measurement": "Tumor volume (mean)", "setting": "HCT-116 cells; [9]", "result": "<20", "unit": "mm^3"},
      {"measurement": "Tumor volume (mean)", "setting": "HCT-116 cells; [10]", "result": "<20", "unit": "mm^3"},
      {"measurement": "Tumor volume (mean)", "setting": "HCT-116 cells; [11]", "result": "<20", "unit": "mm^3"},
      {"measurement": "Tumor growth on preventive application", "setting": "[3]", "result": "reduced growth of triple negative tumor cells"},
      {"measurement": "brain tumor growth", "setting": "brain tumors", "result": "reduce brain tumor growth"},
      {"measurement": "average oral bioavailability", "setting": "[4]", "result": "60-65%"},
      {"measurement": "selectivity of NK1 receptors compared to other enzyme transporter, ion channels", "setting": "NK1 receptors", "result": "at least 3000 times"},
      {"measurement": "Tumor volume (mean)", "setting": "MDA-MB-231 cells; [12]", "result": "<20", "unit": "mm^3"},
      {"measurement": "Tumor volume (mean)", "setting": "MDA-MB-231 cells; [13]", "result": "<20", "unit": "mm^3"},
      {"measurement": "Tumor volume (mean)", "setting": "MDA-MB-231 cells; [14]", "result": "<20", "unit": "mm^3"},
      {"measurement": "IC50", "setting": "A549 cells [5]; 192 h, A549 (lung), soft agar growth, incubation time 8 days, read-out: IC50", "result": 3.6, "unit": "µM"}
    ]},
    {"smiles": "C[C@@H](O[C@H]1OCCN(Cc2nc(O)n(P(=O)(O)O)n2)[C@H]1c1ccc(F)cc1)c1cc(C(F)(F)F)cc(C(F)(F)F)c1", "note": "[Fosaprepitant]", "values": [
      {"measurement": "Tumor volume (mean)", "setting": "A549 cells [1]; [6]", "result": "<20", "unit": "mm^3"},
      {"measurement": "Tumor volume (mean)", "setting": "A549 cells [1]; [7]", "result": "<20", "unit": "mm^3"},
      {"measurement": "Tumor volume (mean)", "setting": "A549 cells [1]; [8]", "result": "<20", "unit": "mm^3"},
      {"measurement": "water solubility", "setting": "[2]", "result": "water-soluble"},
      {"measurement": "IC50", "setting": "MDA-MB231 cells", "result": 36, "unit": "µM"},
      {"measurement": "IC50", "setting": "HCT116 cells", "result": 3, "unit": "µM"},
      {"measurement": "Tumor volume (mean)", "setting": "HCT-116 cells; [9]", "result": "<20", "unit": "mm^3"},
      {"measurement": "Tumor volume (mean)", "setting": "HCT-116 cells; [10]", "result": "<20", "unit": "mm^3"},
      {"measurement": "Tumor volume (mean)", "setting": "HCT-116 cells; [11]", "result": "<20", "unit": "mm^3"},
      {"measurement": "Tumor growth on preventive application", "setting": "[3]", "result": "reduced growth of triple negative tumor cells"},
      {"measurement": "Tumor volume (mean)", "setting": "MDA-MB-231 cells; [12]", "result": "<20", "unit": "mm^3"},
      {"measurement": "Tumor volume (mean)", "setting": "MDA-MB-231 cells; [13]", "result": "<20", "unit": "mm^3"},
      {"measurement": "Tumor volume (mean)", "setting": "MDA-MB-231 cells; [14]", "result": "<20", "unit": "mm^3"},
      {"measurement": "IC50", "setting": "A549 cells [5]; A549, 192 h", "result": 1.7, "unit": "µM"}
    ]}
  ]
}
